# Data reported in US20060128721A1, “Novel formulations of opioid-based treatments of pain comprising substituted 1,4-di-piperidin-4-yl-piperazine derivatives” (priority 2003, published 2006).
# Like-named read-outs stand apart in the source and are kept apart here.
# Key:
# [1] = biological target: T1, cloned human h-NK1 receptors expressed in CHO cells (Homo sapiens, UniProt P25103); assay: Binding experiment for h-NK1 receptors ([3H]-Substance P displacement); conditions: read-out: h-NK1 pIC50 (converted)
# T1 construct: expressed in transfected cells; host or cells: CHO cells
# T1 sequence (P25103 whole entry): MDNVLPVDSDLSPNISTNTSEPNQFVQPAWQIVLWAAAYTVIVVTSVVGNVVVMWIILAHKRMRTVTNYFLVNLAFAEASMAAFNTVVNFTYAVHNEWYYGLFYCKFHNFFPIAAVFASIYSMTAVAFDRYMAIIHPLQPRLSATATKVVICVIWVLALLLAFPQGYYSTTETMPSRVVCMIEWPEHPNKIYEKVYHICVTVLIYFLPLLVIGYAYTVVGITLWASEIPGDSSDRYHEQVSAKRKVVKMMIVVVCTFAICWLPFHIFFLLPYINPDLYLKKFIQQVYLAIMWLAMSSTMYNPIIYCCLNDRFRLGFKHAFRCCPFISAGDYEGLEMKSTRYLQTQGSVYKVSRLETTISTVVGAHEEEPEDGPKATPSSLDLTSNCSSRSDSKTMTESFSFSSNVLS
# Method: (§1) The compounds according to the invention were investigated for interaction with various neurotransmitter receptors, ion channels and transporter binding sites using the radioligand binding technique. Membranes from tissue homogenates or from cells, expressing the receptor or transporter of interests, were incubated with a radioactively labelled substance ([^3H]- or [^125I] ligand) to label a particular receptor. […] Following incubation, labelled membranes were harvested and rinsed with excessive cold buffer to remove non-bound radioactivity by rapid filtration under suction. Membrane bound radioactivity was counted in a scintillation counter and results were expressed in counts per minute (cpm).
# (§2) The compounds were dissolved in DMSO and tested at 10 concentrations ranging from 10^−10 to 10^−5 M.
# (§3) The ability of the compounds according to the invention to displace [^3H]-Substance P from cloned human h-NK1 receptors expressed in CHO cells, to displace [^3H]-SR-48968 from cloned human h-NK2 receptors expressed in Sf9 cells, and to displace [^3H]-SR-142801 from cloned human h-NK3 receptors expressed in CHO cells was evaluated.
# [2] = biological target: T2, cloned human h-NK2 receptors expressed in Sf9 cells (Homo sapiens, UniProt P21452); assay: Binding experiment for h-NK2 receptors ([3H]-SR-48968 displacement); conditions: [3H]-SR-48968, Sf9 cells; read-out: h-NK2 pIC50 (converted)
# T2 construct: expressed in transfected cells; host or cells: Sf9 cells
# T2 sequence (P21452 1-398): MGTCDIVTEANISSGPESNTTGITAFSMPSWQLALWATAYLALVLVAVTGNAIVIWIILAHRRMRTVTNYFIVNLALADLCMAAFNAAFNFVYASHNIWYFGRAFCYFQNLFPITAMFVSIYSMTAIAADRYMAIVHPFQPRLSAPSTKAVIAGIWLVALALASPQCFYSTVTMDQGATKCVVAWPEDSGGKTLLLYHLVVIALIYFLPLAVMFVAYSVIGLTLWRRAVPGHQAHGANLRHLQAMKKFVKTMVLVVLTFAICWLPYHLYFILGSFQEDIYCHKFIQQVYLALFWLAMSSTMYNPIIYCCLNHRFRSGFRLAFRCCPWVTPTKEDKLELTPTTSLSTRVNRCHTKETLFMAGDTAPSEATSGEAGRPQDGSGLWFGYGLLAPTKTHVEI
# Method: as §1, §2, §3
# [3] = biological target: T3, cloned human h-NK3 receptors expressed in CHO cells (Homo sapiens, UniProt P29371); assay: Binding experiment for h-NK3 receptors ([3H]-SR-142801 displacement); conditions: [3H]-SR-142801, CHO cells; read-out: h-NK3 pIC50 (converted)
# T3 construct: expressed in transfected cells; host or cells: CHO cells
# T3 sequence (P29371 1-465): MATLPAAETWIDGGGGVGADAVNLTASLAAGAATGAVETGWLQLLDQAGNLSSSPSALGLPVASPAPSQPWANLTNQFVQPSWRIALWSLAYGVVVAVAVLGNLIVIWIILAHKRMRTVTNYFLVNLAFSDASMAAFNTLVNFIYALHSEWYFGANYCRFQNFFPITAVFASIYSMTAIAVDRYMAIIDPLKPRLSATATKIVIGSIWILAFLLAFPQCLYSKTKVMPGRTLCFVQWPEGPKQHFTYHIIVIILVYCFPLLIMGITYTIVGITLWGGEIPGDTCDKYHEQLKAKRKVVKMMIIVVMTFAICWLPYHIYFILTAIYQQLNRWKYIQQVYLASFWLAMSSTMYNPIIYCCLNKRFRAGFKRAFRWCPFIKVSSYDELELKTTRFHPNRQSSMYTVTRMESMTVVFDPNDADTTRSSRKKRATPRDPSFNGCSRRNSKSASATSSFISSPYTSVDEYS
# Method: as §1, §2, §3
# [4] = tested on: loperamide-induced retching; assay: Antiemetic effects: loperamide-induced retching in ferrets; format: in vivo; conditions: ferrets
# Method: The antiemetic effects have been determined using the loperamide-induced retching model (i.e. retching induced by an opioid) in ferrets. To exclude species differences in antiemetic activiey, both compounds have also been tested for antiemetic activity against apomorphine in dogs.
# Antagonism of emesis induced by the peripherally selective opioid loperamide (0.31 mg/kg, s.c.) was studied over a 1 h-period starting immediately after the emetic challenge in ferrets pretreated with test compound or solvent. In control animals pre-treated with solvent, loperamide induced pronounced retching (mean±SD: 95±39 counts; n=[…]) and, to a lesser extent, vomiting (5±4).
smiles,measurement,setting,value
Cc1cc(C)cc(CN2CCC(N3CCN([C@H]4CCN(C(=O)c5cc(C(F)(F)F)cc(C(F)(F)F)c5)[C@H](Cc5ccccc5)C4)CC3)CC2)c1 [Compound 22],IC50,[1],0.398 nM
same,IC50,[2],631 nM
same,IC50,[3],316 nM
O=C(c1cc(C(F)(F)F)cc(C(F)(F)F)c1)N1CCC(N2CCN(C3CCN(Cc4cc(C(F)(F)F)cc(C(F)(F)F)c4)CC3)CC2)CC1Cc1ccccc1 (stereo not shown) [Compound 26],IC50,[1],39.8 nM
same,IC50,[2],1000 nM
same,IC50,[3],1000 nM
O=C(c1cccc(Cl)c1)N1CCC(N2CCN([C@H]3CCN(C(=O)c4cc(C(F)(F)F)cc(C(F)(F)F)c4)[C@H](Cc4ccccc4)C3)CC2)CC1 [Compound 32],IC50,[1],1.58 nM
same,IC50,[2],631 nM
same,IC50,[3],158 nM
O=C(c1ccccc1O)N1CCC(N2CCN([C@H]3CCN(C(=O)c4cc(C(F)(F)F)cc(C(F)(F)F)c4)[C@H](Cc4ccccc4)C3)CC2)CC1 [Compound 36],IC50,[1],1 nM
same,IC50,[2],794 nM
same,IC50,[3],794 nM
"Cc1nnsc1C(=O)N1CCC(N2CCN([C@H]3CCN(C(=O)c4cc(C(F)(F)F)cc(C(F)(F)F)c4)[C@H](Cc4ccccc4)C3)CC2)CC1 [Compound 77, (2-benzyl-4-{4-[1-(4-methyl-[1,2,3]thiadiazole-5-carbonyl)-piperidin-4-yl]-piperazin-1-yl}-piperidin-I -yl)-(3,5-bis-trifluoromethyl-phenyl)-methanone]",IC50,[1],1 nM
same,IC50,[2],794 nM
same,ratio of oral ED50 (at time of peak effect) over subcutaneous ED50 (obtained at 1 h),[4],1.1
same,ED50,"[4]; blockade (=0 retches), intravenous route, 1 h after administration, read-out: ED50 for blockade of loperamide-induced retching",0.26 mg/kg
same,ED50,"[4]; blockade (=0 retches), oral route, 1 h after administration, read-out: ED50 for blockade of loperamide-induced retching",0.72 mg/kg
same,ED50,"[4]; blockade (=0 retches), oral route, 2 h after administration, read-out: ED50 for blockade of loperamide-induced retching",0.42 mg/kg
same,ED50,"[4]; blockade (=0 retches), oral route, 4 h after administration, read-out: ED50 for blockade of loperamide-induced retching",0.77 mg/kg
same,ED50,"[4]; blockade (=0 retches), oral route, 8 h after administration, read-out: ED50 for blockade of loperamide-induced retching",0.34 mg/kg
same,ED50,"[4]; blockade (=0 retches), oral route, 16 h after administration, read-out: ED50 for blockade of loperamide-induced retching",1.66 mg/kg
same,ED50,"[4]; blockade (=0 retches), oral route, 32 h after administration, read-out: ED50 for blockade of loperamide-induced retching",> 2.5 mg/kg
same,ED50,"[4]; inhibition (<20 retches), intravenous route, 1 h after administration, read-out: ED50 for inhibition of loperamide-induced retching",0.15 mg/kg
same,ED50,"[4]; inhibition (<20 retches), oral route, 1 h after administration, read-out: ED50 for inhibition of loperamide-induced retching",0.31 mg/kg
same,ED50,"[4]; inhibition (<20 retches), oral route, 2 h after administration, read-out: ED50 for inhibition of loperamide-induced retching",0.08 mg/kg
same,ED50,"[4]; inhibition (<20 retches), oral route, 4 h after administration, read-out: ED50 for inhibition of loperamide-induced retching",0.26 mg/kg
same,ED50,"[4]; inhibition (<20 retches), oral route, 8 h after administration, read-out: ED50 for inhibition of loperamide-induced retching",0.29 mg/kg
same,ED50,"[4]; inhibition (<20 retches), oral route, 16 h after administration, read-out: ED50 for inhibition of loperamide-induced retching",0.73 mg/kg
same,ED50,"[4]; inhibition (<20 retches), oral route, 32 h after administration, read-out: ED50 for inhibition of loperamide-induced retching",~2.5 mg/kg
same,ED50,"[4]; oral administration, time of peak effect, read-out: graphically estimated peak-effect ED50 for blockade of retching (=0 retches)",0.34 mg/kg
same,duration of action,"[4]; oral, at 4 times the peak-effect dose",16 h
same,Ratio p.o./s.c. of ED50 for blockade of retching,[4]; p.o. (−2 h) over s.c. (−1 h),1.3
same,ED50,"[4]; iv, read-out: ED50 for blockade of retching 1 h after i.v. injection, i.v., 1 h",0.26 mg/kg
same,ED50,"[4]; iv, read-out: ED50 for inhibition of retching 1 h after i.v. injection, i.v., 1 h",0.15 mg/kg
same,ED50,"[4]; read-out: ED50 (95% confidence limits) for blockade of loperamide-induced retching, p.o. route (−2 h), loperamide 0.31 mg/kg s.c., 2 h after oral administration, blockade = 0 retches",0.42 mg/kg
same,ED50,"[4]; read-out: graphically estimated peak-effect ED50 for inhibition of retching (<20 retches), oral administration, time of peak effect",0.16 mg/kg
same,ED50,"[4]; sc, read-out: ED50 for blockade of loperamide-induced retching, loperamide 0.31 mg/kg s.c., 1 h after subcutaneous administration, blockade = 0 retches",0.32 mg/kg
same,ED50,"[4]; sc, blockade (=0 retches), subcutaneous route, 1 h after administration, read-out: ED50 for blockade of loperamide-induced retching",0.32 mg/kg
same,ED50,"[4]; sc, inhibition (<20 retches), subcutaneous route, 1 h after administration, read-out: ED50 for inhibition of loperamide-induced retching",0.18 mg/kg
same,ED50,"[4]; sc, s.c., 1 h, <20 retches, read-out: ED50 for inhibition of retching one hour after s.c. injection",0.18 mg/kg
same,ED50,"[4]; sc, s.c., 1 h, =0 retches, read-out: ED50 for complete blockade of retching one hour after s.c. injection",0.32 mg/kg
Cc1nnsc1C(=O)N1CCC(N2CCN([C@H]3CCN(C(=O)c4cc(C(F)(F)F)cc(C(F)(F)F)c4)[C@H](Cc4ccccc4)C3)CC2)CC1 [Compound 78],IC50,[1],0.794 nM
same,IC50,[2],398 nM
Cc1nnsc1C(=O)N1CCC(N2CCN([C@H]3CCN(C(=O)c4cc(C(F)(F)F)cc(C(F)(F)F)c4)[C@H](Cc4ccccc4)C3)CC2)CC1 [Compound 142],IC50,[1],1.26 nM
same,IC50,[2],631 nM
Cc1nnsc1C(=O)N1CCC(N2CCN([C@H]3CCN(C(=O)c4cc(C(F)(F)F)cc(C(F)(F)F)c4)[C@H](Cc4ccccc4)C3)CC2)CC1 [Compound 143],IC50,[1],1 nM
same,IC50,[2],794 nM
O=C(c1snnc1CO)N1CCC(N2CCN(C3CCN(C(=O)c4cc(C(F)(F)F)cc(C(F)(F)F)c4)C(Cc4ccccc4)C3)CC2)CC1 (stereo not shown) [Compound 144],IC50,[2],1260 nM
same,IC50,[3],631 nM
